Converted amounts (≈) assume the structure as drawn. Where two headings read alike, the source gives them in different places.

For series [1] the following is noted: mouse, p.o.
Series [2] deals with Escherichia coli NIHJ JC-2. The series can be described thus: Antibacterial activity (in medicinal field), MIC. It counts as cell-based. The note with it: NIHJJC2, read-out: Minimal Inhibitory Conc. (MIC).
Series [3] concerns Shigella sonnei EW 33 Type I. The series can be described thus: Antibacterial activity (in medicinal field), MIC. The following applies: EW33TYPEI, read-out: Minimal Inhibitory Conc. (MIC). Type of series: cell-based.
Series [4] has as its system Staphylococcus epidermidis ATCC 14990. The series can be described thus: Antibacterial activity (in medicinal field), MIC. Type of series: cell-based. The following applies: ATCC14990, read-out: Minimal Inhibitory Conc. (MIC).
Series [5] concerns Proteus vulgaris OX-19. The series can be described thus: Antibacterial activity (in medicinal field), MIC. It counts as cell-based. The following applies: OX19, read-out: Minimal Inhibitory Conc. (MIC).
Series [6] relates to Staphylococcus aureus 209P JC-1. The series can be described thus: Antibacterial activity (in medicinal field), MIC. Type of series: cell-based. The following applies: read-out: Minimal Inhibitory Conc. (MIC).
Series [7] has as its system Salmonella typhi O-901-W. Briefly: Antibacterial activity (in medicinal field), MIC. Type of series: cell-based. The following applies: Salmonella enterica, read-out: Minimal Inhibitory Conc. (MIC).
Series [8] relates to Trichophyton mentagrophytes. Briefly: Therapeutic experiment: treatment of trichophytosis in guinea pigs. It counts as in vivo. The note with it: 1 % preparation, 0.25 ml once per day over 8 consecutive days, visual observation of diseased skin.
In series [9] the test system is Serratia marcescens MB-3848. The series can be described thus: Antibacterial activity (in medicinal field), MIC. Type of series: cell-based. The note with it: MB3848, read-out: Minimal Inhibitory Conc. (MIC).
For series [10], the system named is Citrobacter freundii GN-346. Briefly: Antibacterial activity (in medicinal field), MIC. It counts as cell-based. The following applies: GN346, read-out: Minimal Inhibitory Conc. (MIC).
Series [11] relates to Klebsiella pneumoniae PCI-602. The series can be described thus: Antibacterial activity (in medicinal field), MIC. The note with it: PCI602, read-out: Minimal Inhibitory Conc. (MIC). It counts as cell-based.
For series [12], the system named is Bacillus anthracis No. 109. Briefly: microbe, parasite or virus in culture. Type of series: cell-based. The note with it: NO.109, read-out: Minimal Inhibitory Conc. (MIC).
Series [13] relates to Pseudomonas cepacia M-0527. Briefly: Antibacterial activity (in medicinal field), MIC. The following applies: Burkholderia cepacia, M0527, read-out: Minimal Inhibitory Conc. (MIC). Type of series: cell-based.
In series [14] the test system is Staphylococcus faecalis ATCC 8043. The series can be described thus: Antibacterial activity (in medicinal field), MIC. It counts as cell-based. The note with it: ATCC8043, read-out: Minimal Inhibitory Conc. (MIC).

Turning to `O=[N+]([O-])c1ccn(CC#CI)c1` [1-(1'-iodopro-pyn-3'-yl)-3-nitropyrrole, 1-(1'-iodopropyn-3'-yl)-3-nitropyrrole], the “Acute Toxicity (survival)” value in series [1] (Dosage 200 mg/kg), in [1] (Dosage 500 mg/kg) and in series [1] (Dosage 800 mg/kg) was “All animals survived” throughout.
Regarding `O=[N+]([O-])c1cn(CC#CI)c(Cl)c1Cl` [1-(1'-iodopropyn-3'-yl)-2,3-dichloro-4-nitropyrrole], the “Acute Toxicity (survival)” value in series [1] (Dosage 200 mg/kg), in series [1] (Dosage 500 mg/kg) and in series [1] (Dosage 800 mg/kg) was “All animals survived” each time.
Regarding `O=[N+]([O-])c1cn(CC(I)=C(I)I)c(Cl)c1Cl` [1-(2',3',3'-triiodoallyl)-2,3-dichloro-4-nitropyrrole], the MIC in [2] was determined as 12.5 µg/mL (≈ 20.9 µM); in series [3] it was 6.25 µg/mL (≈ 10.4 µM); in [4], 31.2 µg/mL (≈ 52.1 µM); in series [5] it was 6.25 µg/mL (≈ 10.4 µM); in series [6], 31.2 µg/mL (≈ 52.1 µM); in [7], 12.5 µg/mL (≈ 20.9 µM). For the same compound, the MIC in series [9] was 6.25 µg/mL (≈ 10.4 µM); in series [10] it was 12.5 µg/mL (≈ 20.9 µM); in [11], 25 µg/mL (≈ 41.8 µM); in [12], 31.2 µg/mL (≈ 52.1 µM); in [13] it was 6.25 µg/mL (≈ 10.4 µM); in series [14], 31.2 µg/mL (≈ 52.1 µM). The “Acute Toxicity (survival)” value in series [1] (Dosage 100 mg/kg), in series [1] (Dosage 200 mg/kg) and in series [1] (Dosage 800 mg/kg) was “All animals survived” each time. In addition, in series [8], the “Therapeutic Effect: Desquamation” value is “effective”. Besides, the “Therapeutic Effect: Redness” value in [8] is listed as “prominently effective”. Moreover, the “Therapeutic Effect: Thickening” value in series [8] is recorded as “effective”.
`O=[N+]([O-])c1cc(Cl)n(CC(I)=C(I)I)c1` [1-(2',3',3'-triiodoallyl)-2-chloro-4-nitropyrrole]: the MIC was 12.5 µg/mL (≈ 22.2 µM) in [2]; 12.5 µg/mL (≈ 22.2 µM) in series [3]; 6.25 µg/mL (≈ 11.1 µM) in [4]; 12.5 µg/mL (≈ 22.2 µM) in series [5]; 6.25 µg/mL (≈ 11.1 µM) in series [6]; 12.5 µg/mL (≈ 22.2 µM) in series [7]. Moreover, the MIC in series [9] was 12.5 µg/mL (≈ 22.2 µM); in [10], 12.5 µg/mL (≈ 22.2 µM); in series [11], 25 µg/mL (≈ 44.3 µM); in series [12], 6.25 µg/mL (≈ 11.1 µM); in series [13], 12.5 µg/mL (≈ 22.2 µM); in series [14], 6.25 µg/mL (≈ 11.1 µM).
For the compound `O=[N+]([O-])c1nccn1CC(I)=C(I)I` [1-(2',3',3'-triiodoallyl)-2-nitroimidazole], the MIC in series [2] came out at 25 µg/mL (≈ 47.1 µM); in series [3] it was 3.12 µg/mL (≈ 5.88 µM); in series [4], 12.5 µg/mL (≈ 23.5 µM); in [5] it was 6.25 µg/mL (≈ 11.8 µM); in series [6], 12.5 µg/mL (≈ 23.5 µM); in series [7], 12.5 µg/mL (≈ 23.5 µM). Also, the MIC turned out to be 25 µg/mL (≈ 47.1 µM) in series [9]; 3.12 µg/mL (≈ 5.88 µM) in series [10]; 6.25 µg/mL (≈ 11.8 µM) in series [11]; 6.25 µg/mL (≈ 11.8 µM) in series [12]; 3.12 µg/mL (≈ 5.88 µM) in series [13]; 25 µg/mL (≈ 47.1 µM) in series [14].
For the compound `O=[N+]([O-])c1ccn(CC(I)=C(I)I)c1` [1-(2',3',3'-triiodoallyl)-3-nitropyrrole], the “Acute Toxicity (survival)” value in series [1] (Dosage 100 mg/kg) is “All animals survived”. Also, the “Acute Toxicity (survival)” value in [1] (Dosage 200 mg/kg) is on record as “All animals survived”. Moreover, the “Acute Toxicity (survival)” value in series [1] (Dosage 800 mg/kg) is listed as “All animals survived”. Further, in series [8], the “Therapeutic Effect: Desquamation” value is given as “effective”, the “Therapeutic Effect: Redness” value was “prominently effective” and the “Therapeutic Effect: Thickening” value is recorded as “effective”.
In the case of `IC(I)=C(I)Cn1ccnc1` [1-(2',3',3'-triiodoallyl)-imidazole, 1-(2',3',3'-Triiodoallyl)imidazole], the MIC is 12.5 µg/mL (≈ 25.7 µM) in series [2]; 6.5 µg/mL (≈ 13.4 µM) in series [3]; 12.5 µg/mL (≈ 25.7 µM) in series [4]; 12.5 µg/mL (≈ 25.7 µM) in series [5]; 12.5 µg/mL (≈ 25.7 µM) in [6]; 12.5 µg/mL (≈ 25.7 µM) in [7]. The MIC in series [9] was found to be 12.5 µg/mL (≈ 25.7 µM); in series [10], 12.5 µg/mL (≈ 25.7 µM); in [11], 12.5 µg/mL (≈ 25.7 µM); in series [12], 12.5 µg/mL (≈ 25.7 µM); in series [13], 6.25 µg/mL (≈ 12.9 µM); in [14] it was 25 µg/mL (≈ 51.5 µM).
As for `Clc1ccccc1C(c1ccccc1)(c1ccccc1)n1ccnc1` [chlotri-mazol, 1-(O-chloro-d, a-diphenylbenzyl) imidazole, reference compound], in series [8], the “Therapeutic Effect: Desquamation” value is listed as “effective”, the “Therapeutic Effect: Redness” value is “in-effective” and the “Therapeutic Effect: Thickening” value was “effective”.
Consider `O=[N+]([O-])c1c(Cl)cccc1-c1c[nH]cc1Cl` [pyrrolni-trin, 3-chloro-4-(2'-nitro-3'-chlorophenyl)pyrrole, reference compound], for which, in series [8], the “Therapeutic Effect: Desquamation” value is “in-effective”, the “Therapeutic Effect: Redness” value is reported as “in-effective” and the “Therapeutic Effect: Thickening” value is “effective”.

These data come from patent EP0080051A2, “Heterocyclic compounds and antibacterial and antifungal compositions containing the same as active ingredients” (MEIJI SEIKA KAISHA LTD., priority 1981, dated 1983).
